pIC50: −log10 of the molar value. Where two headings read alike, the source gives them in different places.
Target: T1, PD-1/PD-L1 (Homo sapiens, UniProt Q9NZQ7)
T1 construct: made in house; host or cells: HEK293T
Assay: PD-1/PD-L1 Homogenous Time-Resolved Fluorescence (HTRF) binding assay
Details: PD-L1-His 10 nM, PD-1-Ig 20 nM, read-out: Range or IC50
Procedure, shortened: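 dPBS + 0.1% BSA + 0.05% Tween-20 buffer; Eu-cryptate anti-Ig 1 nM final, APC anti-His 20 nM final; HTRF read. Counter-assays: PD-1-Ig/PD-L2-His 20 & 5 nM, CD80-His/PD-L1-Ig 100 & 10 nM.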

T1 sequence (Q9NZQ7 with tags, fused parts or gaps): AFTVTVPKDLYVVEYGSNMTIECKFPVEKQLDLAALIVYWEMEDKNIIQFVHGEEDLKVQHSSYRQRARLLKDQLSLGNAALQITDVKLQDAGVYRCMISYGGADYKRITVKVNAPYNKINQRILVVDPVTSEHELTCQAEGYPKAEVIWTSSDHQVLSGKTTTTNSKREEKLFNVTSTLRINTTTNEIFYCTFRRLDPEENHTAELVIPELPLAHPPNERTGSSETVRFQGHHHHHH

| pIC50 (value given as range class) | pIC50 (numeric IC50) | Compound |
| --- | --- | --- |
| 8.00 to 9.68 | – | Cc1c(COc2cc(OCc3cncc(C#N)c3)c(CN[C@@](C)(CO)C(=O)O)cc2Cl)cccc1-c1cccc(OCCCN2CC[C@@H](O)C2)c1C(F)F [Example 1514, (S)-2-((5-chloro-2-((5-cyanopyridin-3-yl)methoxy)-4-((2′-(difluoromethyl)-3′-(3-((R)-3-hydroxypyrrolidin-1-yl)propoxy)-2-methyl-[1,1′-biphenyl]-3-yl)methoxy)benzyl)amino)-3-hydroxy-2-methylpropanoic acid] |
| 7.00 to 8.00 | – | Cc1c(COc2cc(OCc3cncc(C#N)c3)c(CN(CCO)CCO)cc2Cl)cccc1-c1cccc(CN(C)CCN2CCS(=O)(=O)CC2)c1C [Example 4084, 5-((2-((bis(2-hydroxyethyl)amino)methyl)-4-chloro-5-((3′-(((2-(1,1-dioxidothiomorpholino)ethyl)(methyl)amino)methyl)-2,2′-dimethyl-[1,1′-biphenyl]-3-yl)methoxy)phenoxy)methyl)nicotinonitrile] |
| 8.00 to 9.68 | – | Cc1c(COc2cc(OCc3cncc(C#N)c3)c(CNC(CO)(CO)CO)cc2Cl)cccc1-c1cccc(CN(C)CCN2CCS(=O)(=O)CC2)c1C [Example 4083, 5-((4-chloro-2-(((1,3-dihydroxy-2-(hydroxymethyl)propan-2-yl)amino)methyl)-5-((3′-(((2-(1,1-dioxidothiomorpholino)ethyl)(methyl)amino)methyl)-2,2′-dimethyl-[1,1′-biphenyl]-3-yl)methoxy)phenoxy)methyl)nicotinonitrile] |
| 8.00 to 9.68 | – | Cc1c(COc2cc(OCc3cncc(C#N)c3)c(CNC(C)(CO)CO)cc2Cl)cccc1-c1cccc(OC[C@H]2CCN(CC(O)CO)C2)c1Cl (stereo partly drawn) [Example 2119, 5-((4-chloro-5-((2′-chloro-3′-(((3S)-1-(2,3-dihydroxypropyl)pyrrolidin-3-yl)methoxy)-2-methyl-[1,1′-biphenyl]-3-yl)methoxy)-2-(((1,3-dihydroxy-2-methylpropan-2-yl)amino)methyl)phenoxy)methyl)nicotinonitrile] |
| 8.00 to 9.68 | – | Cc1c(COc2cc(OCc3cncc(S(C)(=O)=O)c3)c(CN3CCCC[C@H]3C(=O)O)cc2Cl)cccc1-c1ccc2c(c1)OC(CCN1CCC(O)(CC(=O)O)C1)CO2 (mixture of isomers) [Example 1508, (2S)-1-(4-((3-(3-(2-(3-(carboxymethyl)-3-hydroxypyrrolidin-1-yl)ethyl)-2,3-dihydrobenzo[b][1,4]dioxin-6-yl)-2-methylbenzyl)oxy)-5-chloro-2-((5-(methylsulfonyl)pyridin-3-yl)methoxy)benzyl)piperidine-2-carboxylic acid] |
| 8.00 to 9.68 | – | Cc1c(COc2cc(OCc3cncc(C#N)c3)c(CN3CCCC[C@H]3C(=O)O)cc2Cl)cccc1-c1cccc(OCCCN2CCCCC2CO)c1C (stereo partly drawn) [Example 2202, (2S)-1-(5-chloro-2-((5-cyanopyridin-3-yl)methoxy)-4-((3′-(3-(2-(hydroxymethyl)piperidin-1-yl)propoxy)-2,2′-dimethylbiphenyl-3-yl)methoxy)benzyl)piperidine-2-carboxylic Acid] |
| 8.00 to 9.68 | – | CCOC(=O)C1(CO)CCN(CCCOc2cccc(-c3cccc(COc4cc(OCc5cncc(C#N)c5)c(CN[C@H](CO)C(=O)O)cc4Cl)c3C)c2C)C1 (stereo partly drawn) [Example 1047, (2R)-2-((5-chloro-2-((5-cyanopyridin-3-yl)methoxy)-4-((3′-(3-(3-(ethoxycarbonyl)-3-(hydroxymethyl)pyrrolidin-1-yl)propoxy)-2,2′-dimethyl-[1,1′-biphenyl]-3-yl)methoxy)benzyl)amino)-3-hydroxypropanoic Acid] |
| 8.00 to 9.68 | – | CCOC(=O)C1(CO)CCN(CCCOc2cccc(-c3cccc(COc4cc(OCc5cncc(C#N)c5)c(CNC(C)(CO)CO)cc4Cl)c3C)c2Cl)C1 (stereo not drawn) [Example 1117, ethyl 1-(3-((2-chloro-3′-((2-chloro-5-((5-cyanopyridin-3-yl)methoxy)-4-(((1,3-dihydroxy-2-methylpropan-2-yl)amino)methyl)phenoxy)methyl)-2′-methyl-[1,1′-biphenyl]-3-yl)oxy)propyl)-3-(hydroxymethyl)pyrrolidine-3-carboxylate] |
| 8.00 to 9.68 | – | Cc1c(COc2cc(OCc3cncc(C#N)c3)c(CN[C@@H](CO)C(=O)O)cc2Cl)cccc1-c1cccc(OCCCN2CCC(O)C2)c1C (stereo in doubt) [Example 3004, (S)-2-((5-chloro-2-((5-cyanopyridin-3-yl)methoxy)-4-((3′-(3-((R)-3-hydroxypyrrolidin-1-yl)propoxy)-2,2′-dimethyl-[1,1′-biphenyl]-3-yl)methoxy)benzyl)amino)-3-hydroxypropanoic Acid] |
| 8.00 to 9.68 | – | Cc1c(COc2cc(OCc3cncc(C#N)c3)c(CNC(CO)CO)cc2Cl)cccc1-c1cccc(OCCCN2CCC[C@@H](CO)C2)c1C [Example 2292, (R)-5-((4-chloro-2-(((1,3-dihydroxypropan-2-yl)amino)methyl)-5-((3′-(3-(3-(hydroxymethyl)piperidin-1-yl)propoxy)-2,2′-dimethyl-[1,1′-biphenyl]-3-yl)methoxy)phenoxy)methyl)nicotinonitrile] |
| 8.00 to 9.68 | – | Cc1c(COc2cc(OCc3cncc(C#N)c3)c(CNC(C)(CO)CO)cc2Cl)cccc1-c1cccc(OCC(O)CO)c1Cl (stereo not drawn) [Example 2082, 5-((4-chloro-5-((2′-chloro-3′-(2,3-dihydroxypropoxy)-2-methyl-[1,1′-biphenyl]-3-yl)methoxy)-2-(((1,3-dihydroxy-2-methylpropan-2-yl)amino)methyl)phenoxy)methyl)nicotinonitrile] |
| 7.00 to 8.00 | – | CCOC(=O)C1(CO)CCN(CCCOc2cccc(-c3cccc(COc4cc(OCc5cncc(C#N)c5)c(CN5CCC(CO)(C(=O)OCC)C5)cc4Cl)c3C)c2Cl)C1 (stereo not drawn) [Example 1104, ethyl 1-(3-((2-chloro-3′-((2-chloro-5-((5-cyanopyridin-3-yl)methoxy)-4-((3-(ethoxycarbonyl)-3-(hydroxymethyl)pyrrolidin-1-yl)methyl)phenoxy)methyl)-2′-methyl-[1,1′-biphenyl]-3-yl)oxy)propyl)-3-(hydroxymethyl)pyrrolidine-3-carboxylate] |
| – | 8.22 | CC(=O)N[C@H]1CCN(CCCOc2cccc(-c3c(Cl)ccc(COc4cc(OCc5cncc(C#N)c5)c(CNC(C)(CO)CO)cc4Cl)c3Cl)c2C)C1 [Example 2094, N-((3S)-1-(3-((2′,6′-dichloro-3′-((2-chloro-5-((5-cyanopyridin-3-yl)methoxy)-4-(((1,3-dihydroxy-2-methylpropan-2-yl)amino)methyl)phenoxy)methyl)-2-methyl-[1,1′-biphenyl]-3-yl)oxy)propyl)pyrrolidin-3-yl)acetamide] |
| 5.70 to 7.00 | – | CCNC(=O)c1cccc(-c2cccc(COc3cc(OCc4cc(F)cc(F)c4)c(CNC(C)(CO)CO)cc3Cl)c2C)c1C [Example 4022, 3′-((2-chloro-5-((3,5-difluorobenzyl)oxy)-4-(((1,3-dihydroxy-2-methylpropan-2-yl)amino)methyl)phenoxy)methyl)-N-ethyl-2,2′-dimethyl-[1,1′-biphenyl]-3-carboxamide] |
| 8.00 to 9.68 | – | CCOC(=O)C1(CO)CCN(CCCOc2cccc(-c3cccc(COc4cc(OCc5cncc(C#N)c5)c(CN[C@](C)(CO)C(=O)O)cc4Cl)c3C)c2C)C1 (stereo partly drawn) [Example 1049, (2R)-2-((5-chloro-2-((5-cyanopyridin-3-yl)methoxy)-4-((3′-(3-(3-(ethoxycarbonyl)-3-(hydroxymethyl)pyrrolidin-1-yl)propoxy)-2,2′-dimethyl-[1,1′-biphenyl]-3-yl)methoxy)benzyl)amino)-3-hydroxy-2-methylpropanoic Acid] |
| 8.00 to 9.68 | – | CC(=O)NC1CCN(CCCOc2cccc(-c3cccc(COc4cc(OCc5cncc(C#N)c5)c(CO)cc4Cl)c3C)c2Cl)C1 (stereo not drawn) [Example 2021, N-(1-(3-((2-chloro-3′-((2-chloro-5-((5-cyanopyridin-3-yl)methoxy)-4-(hydroxymethyl)phenoxy)methyl)-2′-methyl-[1,1′-biphenyl]-3-yl)oxy)propyl)pyrrolidin-3-yl)acetamide] |
| 7.00 to 8.00 | – | Cc1c(COc2cc(OCc3cncc(C#N)c3)c(CNC(CO)CO)cc2Cl)cccc1-c1cccc(Oc2cccc3c2CCNC3=O)c1C [Example 2354, 5-((4-chloro-2-(((1,3-dihydroxypropan-2-yl)amino)methyl)-5-((2,2′-dimethyl-3′-((1-oxo-1,2,3,4-tetrahydroisoquinolin-5-yl)oxy)-[1,1′-biphenyl]-3-yl)methoxy)phenoxy)methyl)nicotinonitrile] |
| 8.00 to 9.68 | – | Cc1c(COc2cc(OCc3cncc(C#N)c3)c(CN3CCCC[C@H]3C(=O)O)cc2Cl)cccc1-c1ccc2c(c1)OC(CCN1CC[C@@H](O)C1)CO2 (single isomer, unassigned) [Example 1505] |
| 8.00 to 9.68 | – | Cc1c(COc2cc(OCc3cncc(C#N)c3)c(CN3CCCC[C@H]3C(=O)O)cc2Cl)cccc1-c1cccc(OCCCN2CCOC(c3ccccc3)C2)c1C (stereo partly drawn) [Example 3056, (2S)-1-(5-chloro-2-((5-cyanopyridin-3-yl)methoxy)-4-((2,2′-dimethyl-3′-(3-(2-phenylmorpholino)propoxy)-[1,1′-biphenyl]-3-yl)methoxy)benzyl)piperidine-2-carboxylic Acid] |
| 8.00 to 9.68 | – | Cc1c(CCCCN2CC[C@@H](O)C2)cccc1-c1cccc(COc2cc(OCc3cncc(C#N)c3)c(CNC(CO)(CO)CO)cc2Cl)c1C [Example 4066, (R)-5-((4-chloro-2-(((1,3-dihydroxy-2-(hydroxymethyl)propan-2-yl)amino)methyl)-5-((3′-(4-(3-hydroxypyrrolidin-1-yl)butyl)-2,2′-dimethyl-[1,1′-biphenyl]-3-yl)methoxy)phenoxy)methyl)nicotinonitrile] |
| 8.00 to 9.68 | – | Cc1c(COc2cc(OCc3cncc(C#N)c3)c(CN[C@@H](CO)C(=O)O)cc2Cl)cccc1-c1cccc(OCCCN2CCC(O)C2)c1C(F)(F)F (stereo in doubt) [Example 3012, (S)-2-((5-chloro-2-((5-cyanopyridin-3-yl)methoxy)-4-((3′-(3-((R)-3-hydroxypyrrolidin-1-yl)propoxy)-2-methyl-2′-(trifluoromethyl)-[1,1′-biphenyl]-3-yl)methoxy)benzyl)amino)-3-hydroxypropanoic Acid] |
